{"source": "the supplement of paper PMC11208160", "experiment": "recombinant barcode read abundance after kanamycin selection (control-corrected) (log10(CPM+1)); higher = more efficient recombination; sequences stand for … in AGTGCAGAGAAAATCGGCCAGTTTTCTCTGCCTGCAGTCCGCATGCCGT…AGATTTATGCAGCGGACTGCCTTTCTCCCAAAGTGATAAACCGGACAGTATCATGGACCGGTTTTCCCGGTAATCCGTATTTGCAAGGTTGGTTTCACT; site = the 11-nt target", "summary_of_the_method": "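Each value is log10(CPM+1). It describes recombination efficiency, taken as averaged, control-corrected counts per million of barcodes at recombinant junctions. The pooled E. coli library paired targets with IS621 bridge RNA target-binding loops, was co-electroporated with a donor plasmid, and was plated twice on chloramphenicol/ampicillin LB agar (control) and twice on chloramphenicol/ampicillin/kanamycin containing 0.1 mM IPTG.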"}
{"sequence": "ATGGGCCCTTGGGTTCTAACCTGTTGCTC (site ATGGGCCCTAA)", "values": [{"measurement": "recombinant barcode read abundance (log10)", "value": 1.36}]}
{"sequence": "ATGGGCCCTTGGGTTCTAACCTGTTGCTC (site ATGGGCCCTCA)", "values": [{"measurement": "recombinant barcode read abundance (log10)", "value": 1.04}]}
{"sequence": "ATGGGCCCTTGGGTTCTAACCTGTTGCTC (site ATGGGCCCTGA)", "values": [{"measurement": "recombinant barcode read abundance (log10)", "value": 2.09}]}
{"sequence": "ATGGGCCCTTGGGTTCTAACCTGTTGCTC (site ATGGGCCCTTA)", "values": [{"measurement": "recombinant barcode read abundance (log10)", "value": 0.0312}]}
{"sequence": "ATGGGTCCTTGGGTTCTAACCTGTTGCCT (site ATAGGTCCTAG)", "values": [{"measurement": "recombinant barcode read abundance (log10)", "value": 2.07}]}
{"sequence": "ATGGGTCCTTGGGTTCTAACCTGTTGCCT (site ATCGGTCCTAG)", "values": [{"measurement": "recombinant barcode read abundance (log10)", "value": 0.0834}]}
{"sequence": "ATGGGTCCTTGGGTTCTAACCTGTTGCCT (site ATGGGTCCTAG)", "values": [{"measurement": "recombinant barcode read abundance (log10)", "value": 2.55}]}
{"sequence": "ATGGGTCCTTGGGTTCTAACCTGTTGCCT (site ATTGGTCCTAG)", "values": [{"measurement": "recombinant barcode read abundance (log10)", "value": 0.356}]}
{"sequence": "ATGGTCCCTTGGGTTCTAACCTGTTGCCT (site ATAGTCCCTAG)", "values": [{"measurement": "recombinant barcode read abundance (log10)", "value": 3.2}]}
{"sequence": "ATGGTCCCTTGGGTTCTAACCTGTTGCCT (site ATGGTCCCTAG)", "values": [{"measurement": "recombinant barcode read abundance (log10)", "value": 3.16}]}
{"sequence": "ATGGTGGCTTGGGTTCTAACCTGTTGCCT (site ATGGTGACTAG)", "values": [{"measurement": "recombinant barcode read abundance (log10)", "value": 1.17}]}
{"sequence": "ATGGTGGCTTGGGTTCTAACCTGTTGCCT (site ATGGTGCCTAG)", "values": [{"measurement": "recombinant barcode read abundance (log10)", "value": 0.288}]}
{"sequence": "ATGGTGGCTTGGGTTCTAACCTGTTGCCT (site ATGGTGGCTAG)", "values": [{"measurement": "recombinant barcode read abundance (log10)", "value": 1.81}]}
{"sequence": "ATGGTGGCTTGGGTTCTAACCTGTTGCCT (site ATGGTGTCTAG)", "values": [{"measurement": "recombinant barcode read abundance (log10)", "value": 0.241}]}
{"sequence": "ATGTCTACTTGGGTTCTAACCTGTTGCCA (site ATAACTACTTG)", "values": [{"measurement": "recombinant barcode read abundance (log10)", "value": 0.0597}]}
{"sequence": "ATGTCTACTTGGGTTCTAACCTGTTGCCA (site ATGTCTACTTG)", "values": [{"measurement": "recombinant barcode read abundance (log10)", "value": 0.0628}]}
{"sequence": "ATTACCTCTTGGGTTCTAACCTGTTGCCT (site AATACCTCTAG)", "values": [{"measurement": "recombinant barcode read abundance (log10)", "value": 0.0245}]}
{"sequence": "ATTACCTCTTGGGTTCTAACCTGTTGCCT (site ACTACCTCTAG)", "values": [{"measurement": "recombinant barcode read abundance (log10)", "value": 0.0829}]}
{"sequence": "ATTACCTCTTGGGTTCTAACCTGTTGCCT (site AGTACCTCTAG)", "values": [{"measurement": "recombinant barcode read abundance (log10)", "value": 0.0695}]}
{"sequence": "ATTACCTCTTGGGTTCTAACCTGTTGCCT (site ATTACCTCTAG)", "values": [{"measurement": "recombinant barcode read abundance (log10)", "value": 1.1}]}
{"sequence": "ATTACTTCTTGGGTTCTAACCTGTTGCTT (site ATTACTTCTAA)", "values": [{"measurement": "recombinant barcode read abundance (log10)", "value": 0.282}]}
{"sequence": "ATTACTTCTTGGGTTCTAACCTGTTGCTT (site GAGTTCCCTGG)", "values": [{"measurement": "recombinant barcode read abundance (log10)", "value": 0.406}]}
{"sequence": "ATTAGGACTTGGGTTCTAACCTGTTGCAG (site ATTAGGACTCA)", "values": [{"measurement": "recombinant barcode read abundance (log10)", "value": 0.579}]}
{"sequence": "ATTAGGACTTGGGTTCTAACCTGTTGCAG (site ATTAGGACTCT)", "values": [{"measurement": "recombinant barcode read abundance (log10)", "value": 2.1}]}
{"sequence": "ATTAGGACTTGGGTTCTAACCTGTTGCGA (site AATAGGACTGC)", "values": [{"measurement": "recombinant barcode read abundance (log10)", "value": 0.03}]}
{"sequence": "ATTAGGACTTGGGTTCTAACCTGTTGCGA (site ATTAGGACTTC)", "values": [{"measurement": "recombinant barcode read abundance (log10)", "value": 2.3}]}
{"sequence": "ATTAGTGCTTGGGTTCTAACCTGTTGCCT (site AATAGTGCTAG)", "values": [{"measurement": "recombinant barcode read abundance (log10)", "value": 0.605}]}
{"sequence": "ATTAGTGCTTGGGTTCTAACCTGTTGCCT (site ACTAGTGCTAG)", "values": [{"measurement": "recombinant barcode read abundance (log10)", "value": 0}]}
{"sequence": "ATTAGTGCTTGGGTTCTAACCTGTTGCCT (site AGTAGTGCTAG)", "values": [{"measurement": "recombinant barcode read abundance (log10)", "value": 0.118}]}
{"sequence": "ATTAGTGCTTGGGTTCTAACCTGTTGCCT (site ATTAGTGCTAG)", "values": [{"measurement": "recombinant barcode read abundance (log10)", "value": 0.0389}]}
{"sequence": "ATTCACACTTGGGTTCTAACCTGTTGCGT (site ATTCACACTAC)", "values": [{"measurement": "recombinant barcode read abundance (log10)", "value": 2.16}]}
{"sequence": "ATTCACACTTGGGTTCTAACCTGTTGCGT (site CGATTAGCTCG)", "values": [{"measurement": "recombinant barcode read abundance (log10)", "value": 0.0576}]}
{"sequence": "ATTGGATCTTGGGTTCTAACCTGTTGCCT (site ATTGGATCTAG)", "values": [{"measurement": "recombinant barcode read abundance (log10)", "value": 0.391}]}
{"sequence": "ATTGGATCTTGGGTTCTAACCTGTTGCCT (site ATTGGCTCTAG)", "values": [{"measurement": "recombinant barcode read abundance (log10)", "value": 0.0247}]}
{"sequence": "ATTGGATCTTGGGTTCTAACCTGTTGCCT (site ATTGGGTCTAG)", "values": [{"measurement": "recombinant barcode read abundance (log10)", "value": 0.0971}]}
{"sequence": "ATTGGATCTTGGGTTCTAACCTGTTGCCT (site ATTGGTTCTAG)", "values": [{"measurement": "recombinant barcode read abundance (log10)", "value": 0.205}]}
